From patent publication US10322136B2, “Composition for inhibiting growth or proliferation of chronic myelogenous leukemia cancer stem cells, and screening method therefor” (HIROSHIMA UNIVERSITY, priority 2015, dated 2019)
Where a name gives a salt, the structure may show the parent alone. Where a SMILES comes first, the peptide text is derived from it. [ ]: non-standard residue; d: D form. Sar = CNCC(=O)O

Legend:
[1] = system: SLC15A2 mRNA; conditions: nine CML patients, 1 month after IM therapy; public database; cited from earlier work
[2] = system: CML-KLS+ cells; assay: Metabolomic analysis of dipeptides in KLS+ cells from treated CML-affected mice; type: in vivo, mouse; conditions: IM 100 mg/kg/day for 30 days (1 month)
Experimental: (§1) To detect inhibition of dipeptide uptake in vivo, immature KLS^+ cells were isolated from tet-inducible CML-affected (Tal1-tTA^+TRE-BCR-ABL1^+) mice (n=4 mice in each of the three independent experiments), and normal healthy littermate (Tal1-tTA^+) mice (n=6 mice in each of the two independent experiments) that had received vehicle or cefadroxil (36 mgKg^−1day^−1) by oral gavage for 30 days. […] In all cases, isolated cell pellets were frozen at −80° C. immediately after obtaining. Metabolomic profiling was performed by Metabolon Inc. (Durham, N.C.) using ultrahigh-performance liquid chromatography/mass spectroscopy (UPLC/MS/MS) and gas chromatography/MS (GC/MS). Data were compiled using the Metabolon LIMS (Laboratory Information Management System). The UPLC/MS/MS portion of the platform was based on a Waters Acquity UPLC (Waters) and a Q-Exactive high-resolution/accurate mass spectrometer (Thermo Scientific) interfaced with a heated electrospray ionization (HESI-II) source and Orbitrap mass analyzer. GC/MS was performed by a Trace DSQ fast-scanning single-quadrupole mass spectrometer using electron impact ionization (Thermo-Finnigan).

[3] = system: Smad3 Ser208; assay: Duolink in situ PLA, Smad3 Ser208 phosphorylation in LT-CML cancer stem cells; type: cell-based, mouse
Experimental: (§2) To examine phosphorylation of Smad2, Smad3, p38MAPK, AMPK, and S6 ribosomal protein, and Foxo3a-Smad2 and Foxo3a-Smad3 interactions, Duolink® in situ PLA assay (Olink Bioscience) was used. LT-CML stem cells, ST-CML stem cells, CD48^+, MPP, and KLS^− CML cells that were freshly isolated from CML-affected mice, and LT-normal HSCs that were freshly isolated from healthy control littermates, were immediately fixed with 4% paraformaldehyde for 30 min.
(§3) For in vitro inhibitor experiments, LT-CML stem cells were incubated in 3% O2 at 37° C. for 30 min with vehicle (control; artificial gastric fluid solution (900 ml ddH2O containing 2.0 g of NaCl, 7 ml of conc. HCl and 3.2 g of pepsin)), 5 μM Ly364947 (TGF-β type I receptor kinase Alk5 inhibitor; Merck), 5 μM SB203580 (p38MAPK inhibitor; LC Laboratories), 5 μM GlySar (dipeptide transporter inhibitor; Sigma-Aldrich), 5 μM cefadroxil (dipeptide transporter inhibitor; Sigma-Aldrich), or 100 nM rapamycin (mTORC1 inhibitor; Cell Signaling Technologies). Treated cells were fixed with 4% paraformaldehyde for 30 min, and treated with 0.25% Triton X-100 for 15 min, washed and blocked by incubation in 5% FBS in TBS for 1 hr.
(§4) The proximate binding of these antibodies was then detected using Duolink® in situ PLA system which employs a set of two secondary antibodies in which one is conjugated to a minus strand PLA probe and the other is conjugated to a plus strand PLA probe. Nuclei were stained with DNA marker DAPI (Sigma). Stained slides were mounted using Fluoromount Plus (Diagnostic Biosystems) and fluorescent images were acquired by confocal microscopy (FV10i, Olympus) and Photoshop software (Adobe). The number of fluorescent foci per single cell was quantified using Duolink®Image Tool software (Olink Bioscience).

[4] = system: Raptor-Ser792; assay: Raptor-Ser792 phosphorylation in LT-CML cancer stem cells; type: cell-based, mouse; conditions: LT-CML cancer stem cells in vitro
[5] = system: S6 ribosomal protein; assay: Duolink in situ PLA, S6 ribosomal protein phosphorylation in LT-CML cancer stem cells; type: cell-based, mouse; conditions: 30 min; GlySar or cefadroxil 5 μM; rapamycin 100 nM
Experimental: as §2
(§5) For in vitro inhibitor experiments, LT-CML stem cells were incubated in 3% O2 at 37° C. for 30 min with vehicle (control; artificial gastric fluid solution (900 ml ddH2O containing 2.0 g of NaCl, 7 ml of conc. HCl and 3.2 g of pepsin)), 5 μM Ly364947 (TGF-β type I receptor kinase Alk5 inhibitor; Merck), 5 μM SB203580 (p38MAPK inhibitor; LC Laboratories), 5 μM GlySar (dipeptide transporter inhibitor; Sigma-Aldrich), 5 μM cefadroxil (dipeptide transporter inhibitor; Sigma-Aldrich), or 100 nM rapamycin (mTORC1 inhibitor; Cell Signaling Technologies). […]
(§6) The proximate binding of these antibodies was then detected using Duolink® in situ PLA system which employs a set of two secondary antibodies in which one is conjugated to a minus strand PLA probe and the other is conjugated to a plus strand PLA probe. […] The number of fluorescent foci per single cell was quantified using Duolink®Image Tool software (Olink Bioscience).

[6] = system: Raptor-Ser863; assay: Duolink in situ PLA, Raptor-Ser863 phosphorylation in LT-CML cancer stem cells; type: cell-based, mouse; conditions: 30 min; GlySar or cefadroxil 5 μM; rapamycin 100 nM
Experimental: as §2, §5, §6

[7] = system: AMPK; assay: Duolink in situ PLA, AMPK phosphorylation in LT-CML cancer stem cells; type: cell-based, mouse; conditions: LT-CML cancer stem cells in vitro
Experimental: as §2, §3, §4

[8] = system: CML-KLS+ cells; assay: Metabolomic analysis of CML-KLS+ cells treated in vitro with protein degradation inhibitors; type: cell-based, mouse; conditions: 100 nM, 2 hrs in vitro, hypoxic (3% O2)
Experimental: as §1

| SMILES | Raptor-Ser792 phosphorylation [4] | phosphorylation of AMPK [7] | dipeptide accumulation [8] | individual amino-acid levels [8] | also measured |
| --- | --- | --- | --- | --- | --- |
| Cc1ccc(NC(=O)c2ccc(CN3CCN(C)CC3)cc2)cc1Nc1nccc(-c2cccnc2)n1 [IM, imatinib mesylate] |  |  |  |  | SLC15A2 mRNA levels in CML patients [1]: decreased to a level comparable to that in healthy individuals; dipeptide levels in CML-KLS+ cells [2]: tended to decrease; levels of phospho-Smad3-Ser208 ([3]; IM treatment of murine LT-CML stem cells in vitro): reduced |
| CN(CC(=O)O)C(=O)CN [GlySar, glycylsarcosine] (H-Gly-[Sar]-OH) | did not promote | increased |  |  | phosphorylation of S6 [5]: decreased phosphorylation; phosphorylation of Raptor-Ser863 [6]: decreased phosphorylation; Smad3 Ser208 phosphorylation ([3]; 30 min, GlySar or cefadroxil 5 μM, rapamycin 100 nM): blocked |
| CO/C1=C\C(C)=C\[C@@H](C)[C@@H](O)[C@@H](C)C/C(C)=C/C=C/[C@H](OC)[C@@H]([C@@H](C)[C@@H](O)[C@H](C)[C@@]2(O)C[C@@H](O)[C@H](C)[C@@H](C(C)C)O2)OC1=O [Bafilomycin A1] |  |  | increased significantly | decreased |  |
| CC(C)C[C@H](NC(=O)[C@H](Cc1ccccc1)NC(=O)c1cnccn1)B(O)O [Bortezomib] |  |  | increased significantly | decreased |  |
| CN(C)C(=N)N=C(N)N [Metformin] | increases | increases |  |  |  |
